Results published in patent US9198913B2, “Nitroimidazooxazines and their uses in anti-tubercular therapy” (priority 2009, dated 2015).
In brackets after ≈: the same amount, converted by molar mass.

Columns and labels:
[1] = Stability to human liver microsomes; type: in vitro ADME; settings: 1 μM, 37° C., 60 min, pooled human liver microsomes;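 note: parent compound quantified by LC-MS/MS against an internal standard, duplicates averaged, expressed relative to the 0 min sample taken as 100%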
[2] = Stability to mouse liver microsomes; type: in vitro ADME; settings: 1 μM, 37° C., 60 min, CD-1 mouse liver microsomes;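 note: analyte quantified by LC-MS/MS as ratio to internal standard peak area, mean of duplicates, 60 min value expressed relative to the 0 min level (100%)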
[3] = Water solubility (sonicated suspension, HPLC); type: physicochemical; settings: in water; for solubility at 15 min: thermodynamic from solid;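 for all read-outs here: concentration in the clear supernatant quantified by HPLC peak area against a DMSO standard solution of the same compound, corrected for dilution and injection volume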
[4] = In vivo pharmacokinetics in mice; settings: CD-1 mice, oral, 40 mg/kg; for Cmax / half-life / Kp: mouse; for Cmax / half-life: in vivo, plasma; for half-life: read-out: t½ (h) plasma (converted); for Kp: lung/plasma, read-out: AUC ratio (lung/plasma);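 for all read-outs here: plasma and lung samples quantified by LC-MS/MS, dosing as a suspension in aqueous carboxymethylcellulose with Tween 80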

Row | Structure (SMILES) | melting point [°C] | Microsomes (% remaining, 1 h) Human [1] [%] | Microsomes (% remaining, 1 h) Mouse [2] [%] | solubility at 15 min [3] [µg/mL] | AUC lung [4] [µg·h/mL] | Cmax [4] [ng/mL] | half-life [4] [h] | Kp [4] | Solubility [3] [µg/mL]
1 | O=[N+]([O-])c1cn2c(n1)OC[C@@H](OCc1ccc(-c3ccc(F)cc3)nc1)C2 (hydrate or solvate) [Compound 5, (6S)-6-{[6-(4-Fluorophenyl)-3-pyridinyl]methoxy}-2-nitro-6,7-dihydro-5H-imidazo[2,1-b][1,3]oxazine] | 194 to 196 |  |  |  |  |  |  |  | 
2 | O=[N+]([O-])c1cn2c(n1)OC[C@@H](OCc1ccc(-c3ccc(OC(F)(F)F)cc3Cl)cc1)C2 [Compound 1, (6S)-6-{[2′-Chloro-4′-(trifluoromethoxy)[1,1′-biphenyl]-4-yl]methoxy}-2-nitro-6,7-dihydro-5H-imidazo[2,1-b][1,3]oxazine] | 80 to 82 | 91 | 86 | 0.66 (≈ 1.4 µM) | 3363 | 6800 | 19.9 | 17 | 
3 | O=[N+]([O-])c1cn2c(n1)OC[C@@H](OCc1ccc(-c3ccc(OC(F)(F)F)cc3)cc1)C2 [Compound 3, (6S)-2-Nitro-6-{[4′-(trifluoromethoxy)[1,1′-biphenyl]-4-yl]methoxy}-6,7-dihydro-5H-imidazo[2,1-b][1,3]oxazine] | 199 to 201 |  |  |  | 218 |  |  |  | 
4 | O=[N+]([O-])c1cn2c(n1)OC[C@@H](OCc1cnc(-c3ccc(OC(F)(F)F)cc3)cn1)C2 [Compound 4, (6S)-2-Nitro-6-({5-[4-(trifluoromethoxy)phenyl]-2-pyrazinyl}methoxy)-6,7-dihydro-5H-imidazo[2,1-b][1,3]oxazine] | 182 to 184 | 98 |  |  | >324 |  |  |  | 2.6 (≈ 5.95 µM)
5 | O=[N+]([O-])c1cn2c(n1)OC[C@@H](OCc1ccc(-c3ccc(F)cc3)nc1)C2 [Compound 5, (6S)-6-{[6-(4-Fluorophenyl)-3-pyridinyl]methoxy}-2-nitro-6,7-dihydro-5H-imidazo[2,1-b][1,3]oxazine] |  | 88 | 80 |  | 136 |  |  |  | 3.8 (≈ 10.3 µM)
6 | O=[N+]([O-])c1cn2c(n1)OC[C@@H](OCc1ccc(-c3ccc(OC(F)(F)F)cc3)nc1)C2 [Compound 6, (6S)-2-Nitro-6-({6-[4-(trifluoromethoxy)phenyl]-3-pyridinyl}methoxy)-6,7-dihydro-5H-imidazo[2,1-b][1,3]oxazine] |  | 83 | 87 |  | 81 | 12200 |  |  | 2.3 (≈ 5.27 µM)
7 | O=[N+]([O-])c1cn2c(n1)OC[C@@H](OCc1ccc(-c3ccc(OC(F)(F)F)cc3)cn1)C2 [Compound 7, (6S)-2-Nitro-6-({5-[4-(trifluoromethoxy)phenyl]-2-pyridinyl}methoxy)-6,7-dihydro-5H-imidazo[2,1-b][1,3]oxazine] | 157 to 159 |  |  |  | 427 | 25900 |  |  | 
8 | O=[N+]([O-])c1cn2c(n1)OC[C@@H](OCc1ccc(-c3ccc(C(F)(F)F)nc3)cc1)C2 [Compound 9, (6S)-2-Nitro-6-({4-[6-(trifluoromethyl)-3-pyridinyl]benzyl}oxy)-6,7-dihydro-5H-imidazo[2,1-b][1,3]oxazine] | 221 to 222 | 86 |  |  | 414 | 13500 |  | 1.9 | 1.0 (≈ 2.38 µM)
9 | O=[N+]([O-])c1cn2c(n1)OC[C@@H](OCc1ccn(-c3ccc(OC(F)(F)F)cc3)n1)C2 [Compound 10, (6S)-2-Nitro-6-({1-[4-(trifluoromethoxy)phenyl]-1H-pyrazol-3-yl}methoxy)-6,7-dihydro-5H-imidazo[2,1-b][1,3]oxazine] | 103 to 105 | 87 | 67 |  | 31.5 | 1510 | 2.4 | 3.5 | 
10 | O=[N+]([O-])c1cn2c(n1)OC[C@@H](Oc1ccc(-c3ccc(OC(F)(F)F)cc3)cc1)C2 [Compound 13, (6S)-2-Nitro-6-{[4′-(trifluoromethoxy)[1,1′-biphenyl]-4-yl]oxy}-6,7-dihydro-5H-imidazo[2,1-b][1,3]oxazine] | 210 |  |  | 3 (≈ 7.12 µM) | 347 |  | 38 | 3.4 | 
11 | O=[N+]([O-])c1cn2c(n1)OC[C@@H](OCc1ccc(-c3ccc(OC(F)(F)F)cc3)c(F)c1)C2 [Compound 15, (6S)-6-{[2-Fluoro-4′-(trifluoromethoxy)[1,1′-biphenyl]-4-yl]methoxy}-2-nitro-6,7-dihydro-5H-imidazo[2,1-b][1,3]oxazine] | 181 to 183 |  |  | 0.33 (≈ 0.728 µM) |  |  |  |  | 
12 | O=[N+]([O-])c1cn2c(n1)OC[C@@H](OCc1ccc(Cc3ccc(OC(F)(F)F)cc3)cc1)C2 [Compound 17, (6S)-2-Nitro-6-({4-[4-(trifluoromethoxy)benzyl]benzyl}oxy)-6,7-dihydro-5H-imidazo[2,1-b][1,3]oxazine] | 132 to 133 | 85 | 70 | 0.16 (≈ 0.356 µM) |  |  |  |  | 
13 | O=[N+]([O-])c1cn2c(n1)OC[C@@H](OCc1ccc(C#Cc3ccc(OC(F)(F)F)cc3)cn1)C2 [Compound 18, (6S)-2-Nitro-6-[(5-{[4-(trifluoromethoxy)phenyl]ethynyl}-2-pyridinyl)methoxy]-6,7-dihydro-5H-imidazo[2,1-b][1,3]oxazine] | 207 to 208 |  |  | 0.36 (≈ 0.782 µM) | 235 | 2360 | 23.5 | 2.5 | 
14 | O=[N+]([O-])c1cn2c(n1)OC[C@@H](OC/C=C/c1ccc(-c3ccc(OC(F)(F)F)cc3)cc1)C2 [Compound 19, (6S)-2-Nitro-6-({(2E)-3-[4′-(trifluoromethoxy)[1,1′-biphenyl]-4-yl]-2-propenyl}oxy)-6,7-dihydro-5H-imidazo[2,1-b][1,3]oxazine] | 220 to 221 | 100 | 95 |  |  |  |  |  | 0.50 (≈ 1.08 µM)
15 | O=[N+]([O-])c1cn2c(n1)OC[C@@H](OCc1ccc(-c3ccc(OC(F)(F)F)c(F)c3)nc1)C2 [Compound 21, (6S)-6-({6-[3-Fluoro-4-(trifluoromethoxy)phenyl]-3-pyridinyl}methoxy)-2-nitro-6,7-dihydro-5H-imidazo[2,1-b][1,3]oxazine] |  | 100 | 90 |  | 251 |  | 13.9 | 1.4 | 3.0 (≈ 6.6 µM)
16 | O=[N+]([O-])c1cn2c(n1)OC[C@@H](OCc1ccc(C#Cc3ccc(C(F)(F)F)nc3)cn1)C2 [Compound 25, (6S)-2-Nitro-6-[(5-{[6-(trifluoromethyl)-3-pyridinyl]ethynyl}-2-pyridinyl)methoxy]-6,7-dihydro-5H-imidazo[2,1-b][1,3]oxazine] | 226 to 227 | 88 | 91 |  |  |  |  |  | 
17 | O=[N+]([O-])c1cn2c(n1)OC[C@@H](OCc1ccc(-c3ccc(F)cn3)cc1)C2 [Compound 26, (6S)-6-{[4-(5-Fluoro-2-pyridinyl)benzyl]oxy}-2-nitro-6,7-dihydro-5H-imidazo[2,1-b][1,3]oxazine] | 180 to 181 | 83 | 61 |  |  |  |  |  | 67 (≈ 181 µM)
18 | O=[N+]([O-])c1cn2c(n1)OC[C@@H](OCc1cnn(-c3ccc(OC(F)(F)F)cc3)c1)C2 [Compound 27, (6S)-2-Nitro-6-({1-[4-(trifluoromethoxy)phenyl]-1H-pyrazol-4-yl}methoxy)-6,7-dihydro-5H-imidazo[2,1-b][1,3]oxazine] | 150 to 151 | 87 | 64 |  |  |  |  |  | 
19 | O=[N+]([O-])c1cn2c(n1)OC[C@@H](OCc1ncc(-c3ccc(OC(F)(F)F)cc3)cn1)C2 [Compound 29, (6S)-2-Nitro-6-({5-[4-(trifluoromethoxy)phenyl]-2-pyrimidinyl}methoxy)-6,7-dihydro-5H-imidazo[2,1-b][1,3]oxazine] | 223 to 226 | 92 | 87 |  |  |  |  |  | 8.1 (≈ 18.5 µM)
20 | O=[N+]([O-])c1cn2c(n1)OC[C@@H](OCc1ccc(/C=C/c3ccc(OC(F)(F)F)cc3)cc1)C2 [Compound 31, (6S)-2-Nitro-6-[(4-{(E)-2-[4-(trifluoromethoxy)phenyl]ethenyl}benzyl)oxy]-6,7-dihydro-5H-imidazo[2,1-b][1,3]oxazine] | 228 to 230 | 99 | 98 |  |  |  |  |  | 
21 | O=[N+]([O-])c1cn2c(n1)OC[C@@H](OCc1ccc(C#Cc3ccc(OC(F)(F)F)cc3)cc1)C2 [Compound 32, (6S)-2-Nitro-6-[(4-{[4-(trifluoromethoxy)phenyl]ethynyl}benzyl)oxy]-6,7-dihydro-5H-imidazo[2,1-b][1,3]oxazine] | 233 to 236 |  |  |  |  |  |  |  | 
22 | O=[N+]([O-])c1cn2c(n1)OC[C@@H](OCc1ccc(C#Cc3ccc(OC(F)(F)F)cc3)nc1)C2 [Compound 33, (6S)-2-Nitro-6-[(6-{[4-(trifluoromethoxy)phenyl]ethynyl}-3-pyridinyl)methoxy]-6,7-dihydro-5H-imidazo[2,1-b][1,3]oxazine] | 235 to 238 |  |  |  |  |  |  |  | 
